Results on 14 sequences are retold here after publication PMC5295395, “Inhibition of PlexA1-mediated brain tumor growth and tumor-associated angiogenesis using a transmembrane domain targeting peptide” (Oncotarget, 2016).

One assay has as its system NRP1.
Test: not given
The following applies: cited from earlier work. An excerpt: Glioblastoma (GBM) is a devastating disease with poor prognosis. Highly infiltrative and vascularized, these tumors are composed of multi-clonal cell types with various migratory and proliferative properties, and are genetically very heterogeneous. This obvious cellular heterogeneity largely accounts for the observed resistance to all available therapeutic strategies including, surgery, radiotherapy and chemotherapy. Significant recent progress in targeted therapy comprises blocking various receptor tyrosine kinases (RTK) or inhibiting angiogenesis. However, the clinica ...
For “ILITIIAMSALGVLLGAVCGVVLYRKR [MTP-NRP1, synthetic peptide mimicking the TMD of NRP1]”, the NRP1 dimerization antagonism entry was “potent inhibitor by antagonizing dimerization” and the brain tumor growth result is given as “reducing brain tumor growth”.

The assay is the same for the next values; noted with them: in vitro and in vivo; cited from earlier work.
In the case of “ILITIIAMSALGVLLGAVCGVVLYRKR [MTP-NRP1, synthetic peptide mimicking the TMD of NRP1]”, the “tumor cell migration and angiogenesis” value was “impaired tumor cell migration and angiogenesis”.

The next assay has as its system PlexA1 TMD. In words: bacterial two-hybrid (BACTH) assay of TMD interactions with PlexA1 TMD. In kind it is binding. The following applies: Zip sequence positive control, Empty negative control. From the text: To further explore the TMD interactions of PlexA1 we used a bacterial two-hybrid system for a more systematic analysis of TMD interactions. TMD sequences of PlexA1 and various potential interacting partners including NRP1 and all other members of the Plexin-A family were co-expressed in the bacteria to define the hierarchy of the interactions.
“Zip sequence” is the positive control of dimerization and “Empty” is the negative control of this bacterial system. (C, D) SPR assay (Biacore) to quantify MTP-PlexA1 interactions with PLexA1, NRP1 and VEGFR2 TMDs. (E) Proximity ligation assay showing that MTP-PlexA1 (10^−7 M) decreases the number of PLexA1-NRP1 interactions (green dots) in U373MG cells (scale bar = 20 μm).
Take “NFTGLIAGVVSISTALLLLLGFFLWLKKR [cMET, TMD of c-Met in BACTH assay]”: the “interaction with PlexA1 TMD” value was “no significant interaction”.

Regarding “SLPAIVSIAVAGGLLIIFIVAVLIAYKRK [Plexin-A4, TMD of Plexin A4 in BACTH assay]”, the “interaction with PlexA1 TMD” value is “positive interactions”. In the case of “ILITIIAMSALGVLLGAVCGVVLYRKR [NRP1, TMD of Neuropilin-1 in BACTH assay]”, the “interaction with PlexA1 TMD” value is recorded as “significant interaction”. As for “IIILVGTAVIAMFFWLLLVIILRTVKRK [VEGFR-2, TMD of VEGFR-2 in BACTH assay]”, the “interaction with PlexA1 TMD” value is on record as “no significant interaction”. In the case of “TLPAIVGIGGGGGLLLLVIVAVLIAYKRK [PlexA1, TMD of Plexin A1 in BACTH assay]”, the “interaction with PlexA1 TMD” value is on record as “homo-dimerization capacity”.

On to “AAQVGLGVGTSLLALGVIIIVLMYRRK [Plexin-B1, TMD of Plexin B1 in BACTH assay]”, for which the “interaction with PlexA1 TMD” value is “no significant interaction”. Still for that read-out and setting: with “ISIISAVVGILLVVVLGVVFGILIKRR [HER2, TMD of HER2 in BACTH assay]” the entry was “no significant interaction”; with “IIPIVAGVVAGIVLIGLALLLIWKLLKR [Integrin Beta-1, TMD of Integrin β-1 in BACTH assay]”, “no significant interaction”; with “TLPAIVSIAAGGSLLLIIVIIVLIAYKRK [Plexin-A2, TMD of Plexin A2 in BACTH assay]”, “weaker interactions”.

Regarding “TLPAMMGLAAGGGLLLLAITAVLVAYKRK [Plexin-A3, TMD of Plexin A3 in BACTH assay]”, the “interaction with PlexA1 TMD” value is listed as “weaker interactions”. As for “IEITLIIFGVMAGVIGTILLISYGIRRK [GPA, TMD of GpA in BACTH assay]”, the “interaction with PlexA1 TMD” value is listed as “no significant interaction”. Regarding “SMEIVILVGTGVIAVFFWVLLLLIFCNRRK [VEGFR-3, TMD of VEGFR-3 in BACTH assay]”, the “interaction with PlexA1 TMD” value is given as “no significant interaction”.

With “NLELITLCTCVAATLFWLLLTLFIRKK [VEGFR-1, TMD of VEGFR-1 in BACTH assay]”, the “interaction with PlexA1 TMD” value was “no significant interaction”.
